Assay results from patent US20210315893A1 (Galapagos NV, priority 2017, published 2021).

What was measured:
[1] = molecular target: T1, human GPCR sphingosine 1-phosphate receptor 2 (Homo sapiens, UniProt O95136); test: S1PR2 antagonist Ca2+ flux assay; assay type: cell-based; details: antagonist mode, CHO-S1PR2 cells, S1P at EC80, Ca2+ fluorescence; read-out: S1P2 EC50 (nM), S1P2 antagonist EC50
T1 construct: host or cells: CHO
Method in brief: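 Antagonist mode: 15 min after compound addition, S1P (EC80) stimulates Fluo8-loaded, 1 h-starved CHO-S1PR2 cells, Ca2+ read over 3 min; a prior 3-min read checks compound agonism. EC50 from peak/baseline fluorescence ratio, normalised versus vehicle and S1P EC50 (antagonist) or EC100 (agonist).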

[2] = molecular target: T2, human GPCR sphingosine 1-phosphate receptor 1 (Homo sapiens, UniProt P21453); test: S1PR1 selectivity Ca2+ flux assay (antagonist readout); assay type: cell-based; details: antagonist readout, CHO cells overexpressing human S1PR1 and Gq, S1P at EC80 (6 nM); read-out: S1P1 EC50 (nM), S1P1 antagonist EC50
T2 construct: host or cells: CHO
T2 sequence (P21453 whole entry): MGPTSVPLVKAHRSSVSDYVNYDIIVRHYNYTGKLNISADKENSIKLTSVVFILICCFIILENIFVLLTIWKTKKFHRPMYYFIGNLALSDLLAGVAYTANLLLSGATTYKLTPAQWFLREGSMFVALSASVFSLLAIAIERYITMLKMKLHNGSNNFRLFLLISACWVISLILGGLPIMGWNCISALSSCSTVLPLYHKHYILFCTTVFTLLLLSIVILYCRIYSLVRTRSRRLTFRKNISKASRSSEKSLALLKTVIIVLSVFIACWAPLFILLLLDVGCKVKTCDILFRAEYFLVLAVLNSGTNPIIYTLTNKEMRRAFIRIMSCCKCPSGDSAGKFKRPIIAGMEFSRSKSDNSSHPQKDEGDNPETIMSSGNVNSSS
Method in brief: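 Antagonist mode: S1P challenge follows 15 min compound preincubation at 37 °C. Cells are CHO stably expressing human S1PR1, serum-starved 1 h (0.1% FAF BSA), loaded with Fluo 8. Peak-over-baseline fluorescence ratio is normalized to positive/negative controls; IC50 from logistic curve fit.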

[3] = molecular target: T3, human GPCR sphingosine 1-phosphate receptor 5 (Homo sapiens, UniProt Q9H228); test: S1PR5 selectivity Ca2+ flux assay (antagonist readout); assay type: cell-based; details: CHO cells overexpressing human S1PR5 and Gq, agonist at EC80 (20 nM), read-out: S1P5 EC50 (nM), S1P5 antagonist EC50
T3 construct: host or cells: CHO
T3 sequence (Q9H228 whole entry): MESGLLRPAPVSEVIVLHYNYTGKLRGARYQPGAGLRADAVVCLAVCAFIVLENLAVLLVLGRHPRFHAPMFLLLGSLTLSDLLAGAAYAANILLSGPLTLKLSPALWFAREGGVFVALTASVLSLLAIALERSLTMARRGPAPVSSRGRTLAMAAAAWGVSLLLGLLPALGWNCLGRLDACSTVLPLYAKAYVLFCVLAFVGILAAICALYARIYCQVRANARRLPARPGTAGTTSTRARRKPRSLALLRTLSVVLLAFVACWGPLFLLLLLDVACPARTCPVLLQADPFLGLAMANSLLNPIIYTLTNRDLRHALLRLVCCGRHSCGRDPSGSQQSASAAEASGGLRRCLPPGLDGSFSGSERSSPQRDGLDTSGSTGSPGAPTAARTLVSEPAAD
From the text: To evaluate the selectivity of the compounds for S1PR2 over S1PR1 and S1PR5, asimilar assay set upas described above for theS1PR2 calcium flux assays waspeformed: CHO cells stably overexpressing human GPCR sphingosine 1-phosphate receptor 1 and Gq protein (Euroscreen, FAST-0197A) or overexpressing human GPCR sphingosine 1-phosphate receptorS5 and Gq protein were used (Perkin Elmer, ES-593-A). In case of the S1PR5 assay triggering was done with an SPR5 specific agonist instead of with S1P (Hobson et al., 2015).
50 μL of Chinese hamster ovary (CHO) cells stably overexpressing human S1PR1 or S1PR5 are seeded in 384 well sterile microplates (7,500 cells/well or 10,000 cells/well respectively) and are incubated overnight at 37° C. under 5% CO2. Cells are subsequently washed twice with 25 μL/well of starvation medium (F-12 Ham's medium containing 0.1% fatty acid free bovine serum albumin (FAF BSA)). After one h starvation at 37° C., 5% CO2, cells are loaded with 25 μL of Fluo 8 dye diluted in Hank's balanced salt solution (HBSS) with 20 mM Hepes complemented with 5 mM of probenecid following the recommendations of the manufacturer (one h at 37° C., 5% CO2). Dilution series of compounds are prepared in HBSS buffer with 20 mM Hepes and 0.1% BSA (FAF). 10 μL of diluted compound is added to the cells using the FDSS/pCELL and intracellular calcium changes are measured immediately by recording fluorescence during 3 min (agonist readout). The ratio of maximal signal over background before compound injection is used to determine compound response.
After an incubation of 15 min at 37° C., following the agonist readout, the plates are transferred to the FDSS/pCELL reader. Cells are stimulated with 10 μL of EC80 concentration of S1P (6 nM for S1P1 and 20 nM for S1P5) and intracellular calcium changes are measured immediately by recording fluorescence during three min (antagonist readout). The ratio of maximal signal over background before S1P injection was used to determine the inhibitory effect ofthe compound.
Raw data obtained in each experiment (ratio of maximal signal over background for calcium mobilization assays) were normalized in percentage of activation (agonist mode) or inhibition (antagonist mode) using positive and negative experiment controls. Each individual plate quality was assessed by evaluation of Z′ factor calculated with raw data using the following equation
Y=bottom+(top−bottom)/(1+(10^(Log IC50−X)*Hillslope)) where X is the logarithm of the concentration of the compound

S1PR2 = molecular target: T4, S1PR2 (Homo sapiens, UniProt O95136); test: S1PR2 binding assay (competition with radioactively labeled S1P, SpA); details: membranes from stable cell line over expressing S1PR2, SpA beads; read-out: S1P2 EC50 (nM), S1PR2 binding EC50
T4 construct: expressed in transfected cells
T4 sequence (O95136 whole entry): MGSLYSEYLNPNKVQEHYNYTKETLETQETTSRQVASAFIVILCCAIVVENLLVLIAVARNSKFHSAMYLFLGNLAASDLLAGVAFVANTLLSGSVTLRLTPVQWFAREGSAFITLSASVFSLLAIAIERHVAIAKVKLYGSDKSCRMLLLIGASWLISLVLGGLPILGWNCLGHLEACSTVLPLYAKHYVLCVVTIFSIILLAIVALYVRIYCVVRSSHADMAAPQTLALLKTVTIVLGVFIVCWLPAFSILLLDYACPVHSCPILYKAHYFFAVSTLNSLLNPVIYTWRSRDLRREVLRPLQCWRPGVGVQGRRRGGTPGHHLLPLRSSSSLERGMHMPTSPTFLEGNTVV
Method in brief: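 Scintillation proximity read-out after 2 h room-temperature incubation of compound, [3H]S1P and S1PR2-overexpressing cell membranes on WGA-coated beads. Buffer: 20 mM Tris pH 7.5, 100 mM NaCl, 10 mM MgCl2, 1 mM Na3VO4, 0.4% fatty-acid-free BSA; plates counted immediately after centrifugation.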

HFL-1 cells [4] = test: IL-8 production assay (S1P induced IL-8); assay type: cell-based; details: Homo sapiens, HFL1; S1P (1 μM) induced IL-8 in HFL-1 cells, starvation medium without HSA; read-out: IL8 EC50
Method in brief: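 HFL-1 fibroblasts in low-serum medium were pretreated 1 h with a 10-point 1/3 series of compound starting at 30 μM (0.3% DMSO).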

HFL-1 cells [5] = test: IL8 assay in the presence of Human Serum Albumin; details: HFL1, read-out: HSA IL8 EC50

T1 sequence (O95136 whole entry): as above

Row | Structure (SMILES) | EC50 [1] [nM] | EC50 [2] [nM] | EC50 [3] [nM] | EC50 (S1PR2) [nM] | EC50 (HFL-1 cells [4]) [nM] | EC50 (HFL-1 cells [5]) [nM]
1 | O=c1c2ccccc2c(Cc2nc3cc(Cl)c(OC(F)(F)F)cc3[nH]2)nn1C1CC1 [Compound 25, 4-[[5-chloro-6-(trifluoromethoxy)-1H-benzimidazol-2-yl]methyl]-2-cyclopropyl-phthalazin-1-one] | 218 | 4710 | 4790 | 565 | 836 | 10000
2 | O=c1c2ccccc2c(Cc2nc3cc(Cl)c(OCC(F)F)cc3[nH]2)nn1C1CC1 [Compound 32, 4-[[5-chloro-6-(2,2-difluoroethoxy)-1H-benzimidazol-2-yl]methyl]-2-cyclopropyl-phthalazin-1-one] | 19.3 | ≥ 19800 | 6610 | 245 | 95.7 | 2960
3 | N#Cc1cc2nc(Cc3nn(C4CC4)c(=O)c4ccccc34)[nH]c2cc1OCC1CC1 [Compound 42, 6-(cyclopropylmethoxy)-2-[(3-cyclopropyl-4-oxo-phthalazin-1-yl)methyl]-1H-benzimidazole-5-carbonitrile] | 19.7 | ≥ 19800 | 19800 | 20.6 | 30.9 | 443
4 | N#Cc1cc2[nH]c(Cn3nc(CC(=O)N4CCOCC4)c(=O)c4ccccc43)nc2cc1OCC(F)F [Compound 49, 6-(2,2-Difluoro-ethoxy)-2-[3-(2-morpholin-4-yl-2-oxo-ethyl)-4-oxo-4H-cinnolin-1-ylmethyl]-3H-enzoimidazole-5-carbonitrile] | 32.8 | ≥ 19800 | 19800 | 92.7 | 31.7 | 47.1
5 | O=C(Cc1nn(Cc2nc3cc(OCC(F)F)c(F)cc3[nH]2)c2ccccc2c1=O)N1CCOCC1 [Compound 50, 1-[5-(2,2-Difluoro-ethoxy)-6-fluoro-1H-benzoimidazol-2-ylmethyl]-3-(2-morpholin-4-yl-2-oxo-ethyl)-1H-cinnolin-4-one] | 195 | ≥ 19800 | 19800 | 267 | 246 | 365
6 | COCCOc1cc2nc(Cc3nn(CC(=O)N4CCOCC4)c(=O)c4ccccc34)[nH]c2cc1C#N [Compound 51, 6-(2-methoxyethoxy)-2-[[3-(2-morpholino-2-oxo-ethyl)-4-oxo-phthalazin-1-yl]methyl]-3H-benzimidazole-5-carbonitrile] | 77.3 | ≥ 19800 | 19800 | 366 | 177 | 291
7 | CC(F)(F)COc1cc2nc(Cc3nn(CC(=O)N4CCOCC4)c(=O)c4ccccc34)[nH]c2cc1C#N [Compound 52, 6-(2,2-difluoropropoxy)-2-[[3-(2-morpholino-2-oxo-ethyl)-4-oxo-phthalazin-1-yl]methyl]-3H-benzimidazole-5-carbonitrile] | 11.6 | ≥ 19800 | 19800 | 105 | 46.7 | 50
8 | O=c1c2ccccc2c(Cc2nc3cc(Cl)c(OC(F)(F)F)cc3[nH]2)nn1CC1CCNCC1 [Compound 56, 4-[[6-chloro-5-(trifluoromethoxy)-1H-benzimidazol-2-yl]methyl]-2-(4-piperidylmethyl)phthalazin-1-one] | 839 | ≥ 19800 | 19800 | 722 | 3330 | 2930
9 | O=c1c2ccccc2c(Cc2nc3cc(Cl)c(OC(F)(F)F)cc3[nH]2)nn1CC1CCNC1 (stereo not drawn) [Compound 57, 4-[[6-chloro-5-(trifluoromethoxy)-1H-benzimidazol-2-yl]methyl]-2-(pyrrolidin-3-ylmethyl)phthalazin-1-one] | 163 | ≥ 19800 | 19800 | 457 | 552 | 501
10 | O=c1c2ccccc2c(Cc2nc3cc(Cl)c(OC(F)(F)F)cc3[nH]2)nn1C1CCNC1 (stereo not drawn) [Compound 59, 4-[[6-chloro-5-(trifluoromethoxy)-1H-benzimidazol-2-yl]methyl]-2-pyrrolidin-3-yl-phthalazin-1-one] | 94.4 | ≥ 19800 | 19800 | 42 | 98.8 | 180
11 | N#Cc1cc2[nH]c(Cc3nn(C4CCNC4)c(=O)c4ccccc34)nc2cc1OCC(F)F (stereo not drawn) [Compound 64, 6-(2,2-difluoroethoxy)-2-[(4-oxo-3-pyrrolidin-3-yl-phthalazin-1-yl)methyl]-3H-benzimidazole-5-carbonitrile] | 137 | ≥ 19800 | 19800 | 131 | 25.6 | 33.5
12 | COCCOc1cc2nc(Cc3nn(C4CCNC4)c(=O)c4ccccc34)[nH]c2cc1C#N (stereo not drawn) [Compound 65, 6-(2-methoxyethoxy)-2-[(4-oxo-3-pyrrolidin-3-yl-phthalazin-1-yl)methyl]-3H-benzimidazole-5-carbonitrile] | 2080 | ≥ 19800 | 19800 | 1030 | 108 | 91.1
13 | N#Cc1cc2nc(Cc3nn(CC(=O)N4CCOCC4)c(=O)c4ccccc34)[nH]c2cc1OCC(F)F [Compound 171, 6-(2,2-difluoroethoxy)-2-[[3-(2-morpholino-2-oxo-ethyl)-4-oxo-phthalazin-1-yl]methyl]-1H-benzimidazole-5-carbonitrile] | 30 | ≥ 19800 | 19800 |  | 23.1 | 44.9
14 | N#Cc1cc2[nH]c(Cc3nn(CC4CCCN4)c(=O)c4ccccc34)nc2cc1OCC(F)F (stereo not drawn) [compound 1, 6-(2,2-difluoro-ethoxy)-2-[[4-oxo-3-(pyrrolidin-2-ylmethyl)-phthalazin-1-yl]-methyl]-3H-benzimidazole-5-carbonitrile] |  | ≥ 19800 | 19800 | 3930 | 3320 | 15600
15 | C[C@H](C(=O)O)c1nn(Cc2cn3cc(OCC4CC4)c(Cl)cc3n2)c2ccccc2c1=O [compound 19, (2S)-2-[1-[[7-chloro-6-(cyclo-propylmethoxy)-imidazo[1,2-a]-pyridin-2-yl]-methyl]-4-oxo-cinnolin-3-yl]-propanoic acid] |  | 19900 | 19900 |  | 1.29 | 18.2
16 | C[C@@H](C(=O)O)c1nn(Cc2cn3cc(OCC4CC4)c(Cl)cc3n2)c2ccccc2c1=O [compound 20, (2R)-2-[1-[[7-chloro-6-(cyclo-propylmethoxy)-imidazo[1,2-a]pyridin-2-yl]-methyl]-4-oxo-cinnolin-3-yl]-propanoic acid] |  | ≥ 19800 | 19800 |  | 134 | 3320
